Consider seven compounds from article PMC6200808 (2018).

Usually Kd stands for the concentration at which binding is half-saturated.

Molecules are shown by their SMILES.

Experiment [1] deals with NEO1A (RNA, aptamer) GGACUGGGCGAGAAGUUUAGUCC
Description: ITC. As to conditions: for Kd: buffer IC (approximates intracellular salt; composition not shown), buffer IC, 25 °C.

The subject of experiment [2] is TOB3A (RNA, aptamer) GGCACGAGGUUUAGCUACACUCGUGCC
The note with it: column head extracted as (M), μ lost.

Experiment [3] has as its system TSM (Thymidylate Synthase mRNA region) (RNA, mRNA element) CCCCCCCGCCGCGCCAUGCCUGUGGCCGGUCGG
As to conditions: column head extracted as (M), μ lost.

Experiment [4] relates to 16S (16S rRNA Decoding region) (RNA, rRNA) GGCGUCACACCUUCGGGUGAAGUCGCC
The note with it: column head extracted as (M), μ lost.

Experiment [5] concerns NEO4A (RNA, aptamer) CUUUGCGAUGUCCUUUAAUGGUCCGCGAGG
Briefly: ITC. As to conditions: buffer IC (approximates intracellular salt; composition not shown), 25 °C.

As to `CN(C)[C@@H]1C(=O)C(C(N)=O)=C(O)[C@@]2(O)C(=O)C3=C(O)c4c(O)cccc4[C@@](C)(O)[C@H]3C[C@@H]12`, the binding result in experiment [1] (20 μM aptamer in cell, tetracycline concentration not stated) is “no”.

Regarding `CN[C@@H]1[C@@H](O)[C@@H](O[C@@H]2[C@@H](O)[C@H](O[C@H]3O[C@H]([C@@H](C)O)[C@@H](O)[C@H](O)[C@H]3N)[C@@H](N)C[C@H]2N)OC[C@]1(C)O`, the Kd in experiment [1] (N = 5) worked out at 26 ± 9.3 µM.

With `NC[C@@H]1O[C@H](O[C@H]2[C@@H](O)[C@H](O[C@@H]3[C@@H](O)[C@H](N)C[C@H](N)[C@H]3O[C@H]3O[C@H](CN)[C@@H](O)[C@H](O)[C@H]3N)O[C@@H]2CO)[C@H](N)[C@@H](O)[C@@H]1O`, the entries for the “Dissociation Constants” value in experiment [2], in experiment [3] and in experiment [4] were 2.2e-06 ± 5e-07 M, 8.8e-07 ± 1.1e-07 M and 1.93e-06 ± 5.8e-07 M, respectively. Besides, the dissociation constant Kd in experiment [5] (N = 3) was determined as 0.099 ± 0.036 µM; in experiment [1] (N = 8) it was 0.29 ± 0.054 µM.

For the compound `NC[C@@H]1O[C@H](O[C@H]2[C@@H](O)[C@H](O[C@@H]3[C@@H](O)[C@H](N)C[C@H](N)[C@H]3O[C@H]3O[C@H](CO)[C@@H](O)[C@H](O)[C@H]3N)O[C@@H]2CO)[C@H](N)[C@@H](O)[C@@H]1O`, the “Dissociation Constants” value is 1.72e-05 ± 1.96e-06 M in experiment [2], 6.29e-06 ± 3.49e-06 M in experiment [3] and 5.31e-06 ± 1.85e-06 M in experiment [4]. In addition, the dissociation constant Kd in experiment [1] (N = 5) amounted to 1.4 ± 0.19 µM.

With `NC[C@H]1O[C@H](O[C@H]2[C@H](O)[C@@H](O[C@H]3O[C@H](CO)[C@@H](O)[C@H](N)[C@H]3O)[C@H](N)C[C@@H]2N)[C@H](N)C[C@@H]1O`, the results for the “Dissociation Constants” value in experiment [2], in experiment [3] and in experiment [4] were 2.4e-07 ± 1e-07 M, 5.75e-06 ± 1.87e-06 M and 1.03e-05 ± 3.87e-06 M, respectively. In experiment [1] (N = 3), the Kd is 4.8 ± 0.95 µM.

As for `NC[C@H]1O[C@H](O[C@H]2[C@H](O)[C@@H](O[C@H]3O[C@H](CO)[C@@H](O)[C@H](N)[C@H]3O)[C@H](N)C[C@@H]2N)[C@H](N)[C@@H](O)[C@@H]1O`, the “Dissociation Constants” value was 2.43e-06 ± 1.37e-06 M in experiment [2], 6.5e-06 ± 3.2e-06 M in experiment [3] and 8.9e-06 ± 3.54e-06 M in experiment [4]. Also, in experiment [1] (N = 5), the Kd was found to be 0.75 ± 0.26 µM.

Consider `NC[C@H]1O[C@H](O[C@H]2[C@H](O)[C@@H](O[C@H]3O[C@H](CO)[C@@H](O)[C@H](N)[C@H]3O)[C@H](N)C[C@@H]2N)[C@H](O)[C@@H](O)[C@@H]1O`, for which the figures for the “Dissociation Constants” value in experiment [2], in experiment [3] and in experiment [4] were 7.38e-05 ± 3.96e-06 M, 1.03e-05 ± 6.65e-06 M and 3.71e-05 ± 4.38e-06 M, respectively. In addition, the values for the Kd in experiment [5] (N = 2) and in experiment [1] (N = 3) were 10.7 ± 4.2 µM and 43 ± 3.6 µM, respectively.
